Source: the supplement of paper PMC4862054

What follows are molecules tested on CAL-85-1 (assay: normalised viability (% of control), CellTiter-Blue; higher = more viable cells (about 100 = DMSO control)). Settings: 0.25 nM; incubation time: 72 h.
Protocol: (§1)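 DSRT, CellTiter-Blue viability, 72 h incubation. Signal is normalised to DMSO and benzethonium chloride controls. Value is the normalised response at dose 3.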

SMILES | normalised viability [%]
CC(=O)Nc1cccc(-n2c(=O)n(C3CC3)c(=O)c3c(Nc4ccc(I)cc4F)n(C)c(=O)c(C)c32)c1 | 97.3

Same assay, conditions: 1 nM; incubation time: 72 h

SMILES | normalised viability [%]
COc1cc2c(Oc3ccc4[nH]c(C)cc4c3F)ncnc2cc1OCCCN1CCCC1 [Cediranib] | 105
C=CC(=O)N1CCC[C@@H](n2nc(-c3ccc(Oc4ccccc4)cc3)c3c(N)ncnc32)C1 | 96.2
Cc1cnc(NC(=O)Nc2cc(Br)c(C)cc2OC[C@@H]2CNCCO2)cn1 | 91.4

Same assay, conditions: 10 nM; incubation time: 72 h

SMILES | normalised viability [%]
Nc1nc2[nH]cc(CCc3ccc(C(=O)N[C@@H](CCC(=O)O)C(=O)O)cc3)c2c(=O)[nH]1 [Pemetrexed] | 99.8
C[C@H]1C[C@@H]2[C@H]([C@@H](O)C[C@@]3(C)[C@H]2CC[C@]3(O)C(=O)CO)[C@@]2(C)C=CC(=O)C=C12 [Methylprednisolone] | 114
COc1cc([C@@H]2c3cc4c(cc3[C@@H](O[C@@H]3O[C@@H]5CO[C@@H](c6cccs6)O[C@H]5[C@H](O)[C@H]3O)[C@H]3COC(=O)[C@H]23)OCO4)cc(OC)c1O [Teniposide] | 101
CCc1cncnc1N1CCN(Cc2nc3ccc(C(F)(F)F)cc3[nH]2)CC1 | 96.3
Oc1ncc(N(CCCl)CCCl)c(O)n1 [Uracil mustard] | 103
COc1cc2nccc(Oc3ccc(NC(=O)Nc4cc(C)on4)c(Cl)c3)c2cc1OC [Tivozanib] | 103
O=C(Cc1ccc(-c2ccc(OCCN3CCOCC3)cc2)cn1)NCc1ccccc1 [KX2-391] | 88.1
CC1=C(/C=C/C(C)=C/C=C/C(C)=C/C(=O)O)C(C)(C)CCC1 [Tretinoin] | 99.2

These molecules were tested on BT-549 in the same assay as above. Settings: 2.5 nM; incubation time: 72 h.
Protocol: as §1

SMILES | normalised viability [%]
CC(=O)Nc1cccc(-n2c(=O)n(C3CC3)c(=O)c3c(Nc4ccc(I)cc4F)n(C)c(=O)c(C)c32)c1 | 104

Same assay, conditions: 10 nM; incubation time: 72 h

SMILES | normalised viability [%]
COc1cc2c(Oc3ccc4[nH]c(C)cc4c3F)ncnc2cc1OCCCN1CCCC1 [Cediranib] | 78.1
C=CC(=O)N1CCC[C@@H](n2nc(-c3ccc(Oc4ccccc4)cc3)c3c(N)ncnc32)C1 | 97.9
Cc1cnc(NC(=O)Nc2cc(Br)c(C)cc2OC[C@@H]2CNCCO2)cn1 | 87.3

Same assay, conditions: 100 nM; incubation time: 72 h

SMILES | normalised viability [%]
Nc1nc2[nH]cc(CCc3ccc(C(=O)N[C@@H](CCC(=O)O)C(=O)O)cc3)c2c(=O)[nH]1 [Pemetrexed] | 87.8
C[C@H]1C[C@@H]2[C@H]([C@@H](O)C[C@@]3(C)[C@H]2CC[C@]3(O)C(=O)CO)[C@@]2(C)C=CC(=O)C=C12 [Methylprednisolone] | 111
COc1cc([C@@H]2c3cc4c(cc3[C@@H](O[C@@H]3O[C@@H]5CO[C@@H](c6cccs6)O[C@H]5[C@H](O)[C@H]3O)[C@H]3COC(=O)[C@H]23)OCO4)cc(OC)c1O [Teniposide] | 70.9
CCc1cncnc1N1CCN(Cc2nc3ccc(C(F)(F)F)cc3[nH]2)CC1 | 88.2
Oc1ncc(N(CCCl)CCCl)c(O)n1 [Uracil mustard] | 111
COc1cc2nccc(Oc3ccc(NC(=O)Nc4cc(C)on4)c(Cl)c3)c2cc1OC [Tivozanib] | 90.4
O=C(Cc1ccc(-c2ccc(OCCN3CCOCC3)cc2)cn1)NCc1ccccc1 [KX2-391] | 27.8
CC1=C(/C=C/C(C)=C/C=C/C(C)=C/C(=O)O)C(C)(C)CCC1 [Tretinoin] | 107

These molecules were tested on HCC1143 in the same assay as above. Settings: 2.5 nM; incubation time: 72 h.
Protocol: as §1

SMILES | normalised viability [%]
CC(=O)Nc1cccc(-n2c(=O)n(C3CC3)c(=O)c3c(Nc4ccc(I)cc4F)n(C)c(=O)c(C)c32)c1 | 86.7

Same assay, conditions: 10 nM; incubation time: 72 h

SMILES | normalised viability [%]
COc1cc2c(Oc3ccc4[nH]c(C)cc4c3F)ncnc2cc1OCCCN1CCCC1 [Cediranib] | 125
C=CC(=O)N1CCC[C@@H](n2nc(-c3ccc(Oc4ccccc4)cc3)c3c(N)ncnc32)C1 | 79.6
Cc1cnc(NC(=O)Nc2cc(Br)c(C)cc2OC[C@@H]2CNCCO2)cn1 | 82.5

Same assay, conditions: 100 nM; incubation time: 72 h

SMILES | normalised viability [%]
Nc1nc2[nH]cc(CCc3ccc(C(=O)N[C@@H](CCC(=O)O)C(=O)O)cc3)c2c(=O)[nH]1 [Pemetrexed] | 91.6
C[C@H]1C[C@@H]2[C@H]([C@@H](O)C[C@@]3(C)[C@H]2CC[C@]3(O)C(=O)CO)[C@@]2(C)C=CC(=O)C=C12 [Methylprednisolone] | 86.6
COc1cc([C@@H]2c3cc4c(cc3[C@@H](O[C@@H]3O[C@@H]5CO[C@@H](c6cccs6)O[C@H]5[C@H](O)[C@H]3O)[C@H]3COC(=O)[C@H]23)OCO4)cc(OC)c1O [Teniposide] | 79.4
CCc1cncnc1N1CCN(Cc2nc3ccc(C(F)(F)F)cc3[nH]2)CC1 | 132
Oc1ncc(N(CCCl)CCCl)c(O)n1 [Uracil mustard] | 84.8
COc1cc2nccc(Oc3ccc(NC(=O)Nc4cc(C)on4)c(Cl)c3)c2cc1OC [Tivozanib] | 113
O=C(Cc1ccc(-c2ccc(OCCN3CCOCC3)cc2)cn1)NCc1ccccc1 [KX2-391] | 33
CC1=C(/C=C/C(C)=C/C=C/C(C)=C/C(=O)O)C(C)(C)CCC1 [Tretinoin] | 86.2

The molecules below were run on Hs578T in the same assay as above. Settings: 2.5 nM; incubation time: 72 h.
Protocol: as §1

SMILES | normalised viability [%]
CC(=O)Nc1cccc(-n2c(=O)n(C3CC3)c(=O)c3c(Nc4ccc(I)cc4F)n(C)c(=O)c(C)c32)c1 | 94.9

Same assay, conditions: 10 nM; incubation time: 72 h

SMILES | normalised viability [%]
COc1cc2c(Oc3ccc4[nH]c(C)cc4c3F)ncnc2cc1OCCCN1CCCC1 [Cediranib] | 78.1
C=CC(=O)N1CCC[C@@H](n2nc(-c3ccc(Oc4ccccc4)cc3)c3c(N)ncnc32)C1 | 99.8
Cc1cnc(NC(=O)Nc2cc(Br)c(C)cc2OC[C@@H]2CNCCO2)cn1 | 101

Same assay, conditions: 100 nM; incubation time: 72 h

SMILES | normalised viability [%]
Nc1nc2[nH]cc(CCc3ccc(C(=O)N[C@@H](CCC(=O)O)C(=O)O)cc3)c2c(=O)[nH]1 [Pemetrexed] | 102
C[C@H]1C[C@@H]2[C@H]([C@@H](O)C[C@@]3(C)[C@H]2CC[C@]3(O)C(=O)CO)[C@@]2(C)C=CC(=O)C=C12 [Methylprednisolone] | 85.3
COc1cc([C@@H]2c3cc4c(cc3[C@@H](O[C@@H]3O[C@@H]5CO[C@@H](c6cccs6)O[C@H]5[C@H](O)[C@H]3O)[C@H]3COC(=O)[C@H]23)OCO4)cc(OC)c1O [Teniposide] | 71.5
CCc1cncnc1N1CCN(Cc2nc3ccc(C(F)(F)F)cc3[nH]2)CC1 | 96.4
Oc1ncc(N(CCCl)CCCl)c(O)n1 [Uracil mustard] | 116
COc1cc2nccc(Oc3ccc(NC(=O)Nc4cc(C)on4)c(Cl)c3)c2cc1OC [Tivozanib] | 91.5
O=C(Cc1ccc(-c2ccc(OCCN3CCOCC3)cc2)cn1)NCc1ccccc1 [KX2-391] | 20.7
CC1=C(/C=C/C(C)=C/C=C/C(C)=C/C(=O)O)C(C)(C)CCC1 [Tretinoin] | 91.5

Each molecule was assayed on HDQ-P1 in the same assay as above. Settings: 0.25 nM; incubation time: 72 h.
Protocol: as §1

SMILES | normalised viability [%]
CC(=O)Nc1cccc(-n2c(=O)n(C3CC3)c(=O)c3c(Nc4ccc(I)cc4F)n(C)c(=O)c(C)c32)c1 | 103

Same assay, conditions: 1 nM; incubation time: 72 h

SMILES | normalised viability [%]
COc1cc2c(Oc3ccc4[nH]c(C)cc4c3F)ncnc2cc1OCCCN1CCCC1 [Cediranib] | 92.7
C=CC(=O)N1CCC[C@@H](n2nc(-c3ccc(Oc4ccccc4)cc3)c3c(N)ncnc32)C1 | 111
Cc1cnc(NC(=O)Nc2cc(Br)c(C)cc2OC[C@@H]2CNCCO2)cn1 | 90.1

Same assay, conditions: 10 nM; incubation time: 72 h

SMILES | normalised viability [%]
Nc1nc2[nH]cc(CCc3ccc(C(=O)N[C@@H](CCC(=O)O)C(=O)O)cc3)c2c(=O)[nH]1 [Pemetrexed] | 120
C[C@H]1C[C@@H]2[C@H]([C@@H](O)C[C@@]3(C)[C@H]2CC[C@]3(O)C(=O)CO)[C@@]2(C)C=CC(=O)C=C12 [Methylprednisolone] | 116
COc1cc([C@@H]2c3cc4c(cc3[C@@H](O[C@@H]3O[C@@H]5CO[C@@H](c6cccs6)O[C@H]5[C@H](O)[C@H]3O)[C@H]3COC(=O)[C@H]23)OCO4)cc(OC)c1O [Teniposide] | 106
CCc1cncnc1N1CCN(Cc2nc3ccc(C(F)(F)F)cc3[nH]2)CC1 | 116
Oc1ncc(N(CCCl)CCCl)c(O)n1 [Uracil mustard] | 107
COc1cc2nccc(Oc3ccc(NC(=O)Nc4cc(C)on4)c(Cl)c3)c2cc1OC [Tivozanib] | 79
O=C(Cc1ccc(-c2ccc(OCCN3CCOCC3)cc2)cn1)NCc1ccccc1 [KX2-391] | 108
CC1=C(/C=C/C(C)=C/C=C/C(C)=C/C(=O)O)C(C)(C)CCC1 [Tretinoin] | 125

These molecules were tested on HCC1599 in the same assay as above. Settings: 2.5 nM; incubation time: 72 h.
Protocol: as §1

SMILES | normalised viability [%]
CC(=O)Nc1cccc(-n2c(=O)n(C3CC3)c(=O)c3c(Nc4ccc(I)cc4F)n(C)c(=O)c(C)c32)c1 | 84.6

Same assay, conditions: 10 nM; incubation time: 72 h

SMILES | normalised viability [%]
COc1cc2c(Oc3ccc4[nH]c(C)cc4c3F)ncnc2cc1OCCCN1CCCC1 [Cediranib] | 95.1
C=CC(=O)N1CCC[C@@H](n2nc(-c3ccc(Oc4ccccc4)cc3)c3c(N)ncnc32)C1 | 85.6
Cc1cnc(NC(=O)Nc2cc(Br)c(C)cc2OC[C@@H]2CNCCO2)cn1 | 122

Same assay, conditions: 100 nM; incubation time: 72 h

SMILES | normalised viability [%]
Nc1nc2[nH]cc(CCc3ccc(C(=O)N[C@@H](CCC(=O)O)C(=O)O)cc3)c2c(=O)[nH]1 [Pemetrexed] | 88.9
C[C@H]1C[C@@H]2[C@H]([C@@H](O)C[C@@]3(C)[C@H]2CC[C@]3(O)C(=O)CO)[C@@]2(C)C=CC(=O)C=C12 [Methylprednisolone] | 108
COc1cc([C@@H]2c3cc4c(cc3[C@@H](O[C@@H]3O[C@@H]5CO[C@@H](c6cccs6)O[C@H]5[C@H](O)[C@H]3O)[C@H]3COC(=O)[C@H]23)OCO4)cc(OC)c1O [Teniposide] | 87.8
CCc1cncnc1N1CCN(Cc2nc3ccc(C(F)(F)F)cc3[nH]2)CC1 | 86.2
Oc1ncc(N(CCCl)CCCl)c(O)n1 [Uracil mustard] | 83.5
COc1cc2nccc(Oc3ccc(NC(=O)Nc4cc(C)on4)c(Cl)c3)c2cc1OC [Tivozanib] | 119
O=C(Cc1ccc(-c2ccc(OCCN3CCOCC3)cc2)cn1)NCc1ccccc1 [KX2-391] | 88
CC1=C(/C=C/C(C)=C/C=C/C(C)=C/C(=O)O)C(C)(C)CCC1 [Tretinoin] | 92.2

What follows are molecules tested on DU-4475 in the same assay as above. Settings: 0.25 nM; incubation time: 72 h.
Protocol: as §1

SMILES | normalised viability [%]
CC(=O)Nc1cccc(-n2c(=O)n(C3CC3)c(=O)c3c(Nc4ccc(I)cc4F)n(C)c(=O)c(C)c32)c1 | 101

Same assay, conditions: 1 nM; incubation time: 72 h

SMILES | normalised viability [%]
COc1cc2c(Oc3ccc4[nH]c(C)cc4c3F)ncnc2cc1OCCCN1CCCC1 [Cediranib] | 97.6
C=CC(=O)N1CCC[C@@H](n2nc(-c3ccc(Oc4ccccc4)cc3)c3c(N)ncnc32)C1 | 92.8
Cc1cnc(NC(=O)Nc2cc(Br)c(C)cc2OC[C@@H]2CNCCO2)cn1 | 90.8

Same assay, conditions: 10 nM; incubation time: 72 h

SMILES | normalised viability [%]
Nc1nc2[nH]cc(CCc3ccc(C(=O)N[C@@H](CCC(=O)O)C(=O)O)cc3)c2c(=O)[nH]1 [Pemetrexed] | 104
C[C@H]1C[C@@H]2[C@H]([C@@H](O)C[C@@]3(C)[C@H]2CC[C@]3(O)C(=O)CO)[C@@]2(C)C=CC(=O)C=C12 [Methylprednisolone] | 101
COc1cc([C@@H]2c3cc4c(cc3[C@@H](O[C@@H]3O[C@@H]5CO[C@@H](c6cccs6)O[C@H]5[C@H](O)[C@H]3O)[C@H]3COC(=O)[C@H]23)OCO4)cc(OC)c1O [Teniposide] | 67.2
CCc1cncnc1N1CCN(Cc2nc3ccc(C(F)(F)F)cc3[nH]2)CC1 | 94.2
Oc1ncc(N(CCCl)CCCl)c(O)n1 [Uracil mustard] | 98.6
COc1cc2nccc(Oc3ccc(NC(=O)Nc4cc(C)on4)c(Cl)c3)c2cc1OC [Tivozanib] | 115
O=C(Cc1ccc(-c2ccc(OCCN3CCOCC3)cc2)cn1)NCc1ccccc1 [KX2-391] | 94.4
CC1=C(/C=C/C(C)=C/C=C/C(C)=C/C(=O)O)C(C)(C)CCC1 [Tretinoin] | 100
